The record followed here is patent US4562176A, “Method and composition for treating cancer” (priority 1985, dated 1985).

The structures appear in SMILES notation.

Series [1] deals with human lymphoblastic leukemia cells (CCRF-CEM). Kind of series: In vitro growth inhibition of CCRF-CEM cells. Format: cell-based. The settings on record: for In Vitro (CCRF-CEM) ID50: cells in log-phase growth, suspension culture, final growth medium 5% Me2SO. As for the experimental part:
^b Human lymphoblastic luekemia cells in logphase growth and in a
suspension culture. Compounds were dissolved in Me2 SO medium, final
growth medium contained 5% Me2 SO.
In vitro growth inhibition of the analogues were assayed against human lymphoblastic leukemia cells (CCRF-CEM) in log phase. The most cyctoxic are AMD-OZN analogues 2b and 2g and AMD-OZL analogues 4a-4c. However, compared to AMD, they are several fold less cytotoxic to CEM-cells in vitro.

Series [2] relates to P388 lymphocytic leukemia. The series can be described thus: In vivo P388 assay. The conditions noted are these: at optimum dose, ip days 1,5,9; for % ILS (percent increase in life span) / MST (median survival time): CDF1 male mice; for MST (median survival time): control MST 11.0 days; for Cure (over 60 day survivors): group of 7 CDF1 male mice, average of 2 experiments. On the set-up: species or system mice. As for the experimental part:
^c 10^6 P388 cells implanted intraperitoneally on day 0 into a
group of 7 CDF1 male mice. Drugs were administered, also ip, in 10%
Me2 SO--saline on days 1,5,9. Test solutions were kept at 0-4.degree
C., protected from light.
These analogues were tested for antitumor activity against P388 lymphocytic leukemia in male CDF1 hybrid mice (Table 6). The tumor was implanted intraperitoneally (ip) with 10^6 cells. The drugs were administered once daily on days 1, 5, 9 beginning 1 day after implantation.

With `Cc1c2oc3c(C)c4oc(-c5c(F)c(F)c(F)c(F)c5F)nc4c(C(=O)N[C@@H]4C(=O)N[C@H](C(C)C)C(=O)N5CCC[C@H]5C(=O)N(C)CC(=O)N(C)[C@@H](C(C)C)C(=O)O[C@@H]4C)c3nc-2c(C(=O)N[C@@H]2C(=O)N[C@H](C(C)C)C(=O)N3CCC[C@H]3C(=O)N(C)CC(=O)N(C)[C@@H](C(C)C)C(=O)O[C@@H]2C)cc1=O` [Compound 4c], in series [1], the “In Vitro (CCRF-CEM) ID50” value is 0.63 µg/mL. Further, in series [2], the “% ILS (percent increase in life span)” value is recorded as 172%, the “MST (median survival time)” value is listed as 30 days and the “Cure (over 60 day survivors)” value is 1/7.

For `Cc1ccc(C(=O)N[C@@H]2C(=O)N[C@H](C(C)C)C(=O)N3CCC[C@H]3C(=O)N(C)CC(=O)N(C)[C@@H](C(C)C)C(=O)O[C@@H]2C)c2c1Oc1c(c(C(=O)N[C@@H]3C(=O)N[C@H](C(C)C)C(=O)N4CCC[C@H]4C(=O)N(C)CC(=O)N(C)[C@@H](C(C)C)C(=O)O[C@@H]3C)c3nc(-c4ccc(Cl)cc4)c(=O)oc3c1C)N2` [Compound 2e], in series [1], the “In Vitro (CCRF-CEM) ID50” value was determined as 1.6 µg/mL. Moreover, in series [2], the “% ILS (percent increase in life span)” value was determined as 164%, the “MST (median survival time)” value stood at 29 days and the “Cure (over 60 day survivors)” value was 0/7.

Take `Cc1ccc(C(=O)N[C@@H]2C(=O)N[C@H](C(C)C)C(=O)N3CCC[C@H]3C(=O)N(C)CC(=O)N(C)[C@@H](C(C)C)C(=O)O[C@@H]2C)c2c1Oc1c(c(C(=O)N[C@@H]3C(=O)N[C@H](C(C)C)C(=O)N4CCC[C@H]4C(=O)N(C)CC(=O)N(C)[C@@H](C(C)C)C(=O)O[C@@H]3C)c3nc(-c4ccc(Cl)cc4Cl)c(=O)oc3c1C)N2` [Compound 2f]: the “In Vitro (CCRF-CEM) ID50” value in series [1] is 3.2 µg/mL. Besides, in series [2], the “% ILS (percent increase in life span)” value worked out at 155%, the “MST (median survival time)” value came out at 28 days and the “Cure (over 60 day survivors)” value is listed as 0/7.

In the case of `Cc1ccc(C(=O)N[C@@H]2C(=O)N[C@H](C(C)C)C(=O)N3CCC[C@H]3C(=O)N(C)CC(=O)N(C)[C@@H](C(C)C)C(=O)O[C@@H]2C)c2c1Oc1c(c(C(=O)N[C@@H]3C(=O)N[C@H](C(C)C)C(=O)N4CCC[C@H]4C(=O)N(C)CC(=O)N(C)[C@@H](C(C)C)C(=O)O[C@@H]3C)c3nc(-c4ccccc4Cl)c(=O)oc3c1C)N2` [Compound 2c], the “In Vitro (CCRF-CEM) ID50” value in series [1] came out at 1.8 µg/mL. Also, in series [2], the “% ILS (percent increase in life span)” value is recorded as 172%, the “MST (median survival time)” value was found to be 30 days and the “Cure (over 60 day survivors)” value was 1/7.

For `Cc1ccc(C(=O)N[C@@H]2C(=O)N[C@H](C(C)C)C(=O)N3CCC[C@H]3C(=O)N(C)CC(=O)N(C)[C@@H](C(C)C)C(=O)O[C@@H]2C)c2c1Oc1c(c(C(=O)N[C@@H]3C(=O)N[C@H](C(C)C)C(=O)N4CCC[C@H]4C(=O)N(C)CC(=O)N(C)[C@@H](C(C)C)C(=O)O[C@@H]3C)c3nc(-c4ccccc4)oc3c1C)N2` [Compound 3b, 2-PHENYL-9,11-DIMETHYL-5H-OXAZOLO[4,5-b]PHENOXAZINE 4,6-BIS[CARBONYL-L-THREONYL-D-VALYL-L-PROLYLSARCOSYL-L-N-METHYL-VALINE-(TH REONINE HYDROXYL)] LACTONE], the “In Vitro (CCRF-CEM) ID50” value in series [1] is 9 µg/mL. For the same compound, in series [2], the “% ILS (percent increase in life span)” value worked out at 109%, the “MST (median survival time)” value is given as 23 days and the “Cure (over 60 day survivors)” value is 0/7.

`Cc1ccc(C(=O)N[C@@H]2C(=O)N[C@H](C(C)C)C(=O)N3CCC[C@H]3C(=O)N(C)CC(=O)N(C)[C@@H](C(C)C)C(=O)O[C@@H]2C)c2c1Oc1c(c(C(=O)N[C@@H]3C(=O)N[C@H](C(C)C)C(=O)N4CCC[C@H]4C(=O)N(C)CC(=O)N(C)[C@@H](C(C)C)C(=O)O[C@@H]3C)c3nc(-c4c(F)c(F)c(F)c(F)c4F)oc3c1C)N2` [Compound 3c]: the “In Vitro (CCRF-CEM) ID50” value in series [1] stood at 12.5 µg/mL. In series [2], the “% ILS (percent increase in life span)” value was 72%, the “MST (median survival time)” value is given as 19 days and the “Cure (over 60 day survivors)” value was 0/7.

In the case of `CCCCCCc1nc2c(C(=O)N[C@@H]3C(=O)N[C@H](C(C)C)C(=O)N4CCC[C@H]4C(=O)N(C)CC(=O)N(C)[C@@H](C(C)C)C(=O)O[C@@H]3C)c3c(c(C)c2oc1=O)Oc1c(C)ccc(C(=O)N[C@@H]2C(=O)N[C@H](C(C)C)C(=O)N4CCC[C@H]4C(=O)N(C)CC(=O)N(C)[C@@H](C(C)C)C(=O)O[C@@H]2C)c1N3` [Compound 2h], in series [1], the “In Vitro (CCRF-CEM) ID50” value stood at 2.08 µg/mL. Moreover, in series [2], the “% ILS (percent increase in life span)” value worked out at 127%, the “MST (median survival time)” value worked out at 25 days and the “Cure (over 60 day survivors)” value was 0/7.

In the case of `Cc1ccc(C(=O)N[C@@H]2C(=O)N[C@H](C(C)C)C(=O)N3CCC[C@H]3C(=O)N(C)CC(=O)N(C)[C@@H](C(C)C)C(=O)O[C@@H]2C)c2c1Oc1c(c(C(=O)N[C@@H]3C(=O)N[C@H](C(C)C)C(=O)N4CCC[C@H]4C(=O)N(C)CC(=O)N(C)[C@@H](C(C)C)C(=O)O[C@@H]3C)c3nc(-c4cccc(Cl)c4)c(=O)oc3c1C)N2` [Compound 2d], in series [1], the “In Vitro (CCRF-CEM) ID50” value came out at 1.6 µg/mL. For the same compound, in series [2], the “% ILS (percent increase in life span)” value stood at 164%, the “MST (median survival time)” value was 29 days and the “Cure (over 60 day survivors)” value was 0/7.

On to `Cc1ccc(C(=O)N[C@@H]2C(=O)N[C@H](C(C)C)C(=O)N3CCC[C@H]3C(=O)N(C)CC(=O)N(C)[C@@H](C(C)C)C(=O)O[C@@H]2C)c2c1Oc1c(c(C(=O)N[C@@H]3C(=O)N[C@H](C(C)C)C(=O)N4CCC[C@H]4C(=O)N(C)CC(=O)N(C)[C@@H](C(C)C)C(=O)O[C@@H]3C)c3nc(-c4c(F)c(F)c(F)c(F)c4F)c(=O)oc3c1C)N2` [Compound 2g], for which the “cytotoxicity to CEM cells (in words)” value in series [1] (CCRF-CEM in log phase) was “most cyctoxic”. In addition, in series [1], the “In Vitro (CCRF-CEM) ID50” value was 0.64 µg/mL. For the same compound, in series [2], the “% ILS (percent increase in life span)” value is reported as 186%, the “MST (median survival time)” value is given as 31.5 days and the “Cure (over 60 day survivors)” value is reported as 1/7.

Consider `Cc1ccc(C(=O)N[C@@H]2C(=O)N[C@H](C(C)C)C(=O)N3CCC[C@H]3C(=O)N(C)CC(=O)N(C)[C@@H](C(C)C)C(=O)O[C@@H]2C)c2c1Oc1c(c(C(=O)N[C@@H]3C(=O)N[C@H](C(C)C)C(=O)N4CCC[C@H]4C(=O)N(C)CC(=O)N(C)[C@@H](C(C)C)C(=O)O[C@@H]3C)c3nc(-c4ccc5ccccc5c4)c(=O)oc3c1C)N2` [Compound 2i, 3-(2-NAPHTHYL)-10,12-DIMETHYL-2H,6H-OXAZINO[3,2-b]PHENOXAZINE-2-ONE 5,7-BIS[CARBONYL-L-THREONYL-D-VALYL-L-PROLYLSARCOSYL-L-N-METHYLVALINE-(THR EONINE HYDROXYL)] LACTONE], for which, in series [1], the “In Vitro (CCRF-CEM) ID50” value is 1 µg/mL. In series [2], the “% ILS (percent increase in life span)” value worked out at 136%, the “MST (median survival time)” value turned out to be 26 days and the “Cure (over 60 day survivors)” value is recorded as 0/7.
